According to ChEMBL document CHEMBL5512604, “Small molecules targeting selected histone methyltransferases (HMTs) for cancer treatment: Current progress and novel strategies” (Eur J Med Chem, 2024):
Each block holds one compound with its values, some of them ahead of it.

What was measured:
[1] = target: T1, Histone-lysine N-methyltransferase EZH1 (Homo sapiens, UniProt Q92800); assay: Displacement of [3H-SAM] from full-length EZH1 (2 to 746 residues) (unknown origin) using a core histone substrate
T1 sequence (Q92800 whole entry): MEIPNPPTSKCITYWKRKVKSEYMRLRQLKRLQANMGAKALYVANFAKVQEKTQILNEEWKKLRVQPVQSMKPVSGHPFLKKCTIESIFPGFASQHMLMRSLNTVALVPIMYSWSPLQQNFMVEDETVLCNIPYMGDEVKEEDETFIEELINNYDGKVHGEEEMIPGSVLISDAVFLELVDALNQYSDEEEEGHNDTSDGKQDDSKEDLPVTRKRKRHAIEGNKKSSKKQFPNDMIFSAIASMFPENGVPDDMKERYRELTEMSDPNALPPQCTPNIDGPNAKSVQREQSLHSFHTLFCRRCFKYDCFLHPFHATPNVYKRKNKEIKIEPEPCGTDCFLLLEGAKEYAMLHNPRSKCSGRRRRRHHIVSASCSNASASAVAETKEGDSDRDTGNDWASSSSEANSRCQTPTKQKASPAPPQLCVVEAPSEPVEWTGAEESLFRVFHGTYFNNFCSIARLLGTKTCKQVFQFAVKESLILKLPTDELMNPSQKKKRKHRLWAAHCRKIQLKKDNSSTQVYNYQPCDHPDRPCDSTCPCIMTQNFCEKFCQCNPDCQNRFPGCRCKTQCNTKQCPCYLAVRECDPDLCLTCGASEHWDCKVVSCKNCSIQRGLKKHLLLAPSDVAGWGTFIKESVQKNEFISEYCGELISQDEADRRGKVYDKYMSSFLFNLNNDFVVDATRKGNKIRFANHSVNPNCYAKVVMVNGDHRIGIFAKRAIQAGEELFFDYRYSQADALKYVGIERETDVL

[2] = target: von Hippel-Lindau disease tumor suppressor/Histone-lysine N-methyltransferase EZH2 (Homo sapiens, UniProt Q15910+P40337); assay: PROTAC activity at VHL/EZH2 in human MDA-MB-453 cells assessed as protein degradation incubated for 48 hrs by Western blot analysis; format: cell-based
Sequence of von Hippel-Lindau disease tumor suppressor/Histone-lysine N-methyltransferase EZH2 (Q15910 whole entry): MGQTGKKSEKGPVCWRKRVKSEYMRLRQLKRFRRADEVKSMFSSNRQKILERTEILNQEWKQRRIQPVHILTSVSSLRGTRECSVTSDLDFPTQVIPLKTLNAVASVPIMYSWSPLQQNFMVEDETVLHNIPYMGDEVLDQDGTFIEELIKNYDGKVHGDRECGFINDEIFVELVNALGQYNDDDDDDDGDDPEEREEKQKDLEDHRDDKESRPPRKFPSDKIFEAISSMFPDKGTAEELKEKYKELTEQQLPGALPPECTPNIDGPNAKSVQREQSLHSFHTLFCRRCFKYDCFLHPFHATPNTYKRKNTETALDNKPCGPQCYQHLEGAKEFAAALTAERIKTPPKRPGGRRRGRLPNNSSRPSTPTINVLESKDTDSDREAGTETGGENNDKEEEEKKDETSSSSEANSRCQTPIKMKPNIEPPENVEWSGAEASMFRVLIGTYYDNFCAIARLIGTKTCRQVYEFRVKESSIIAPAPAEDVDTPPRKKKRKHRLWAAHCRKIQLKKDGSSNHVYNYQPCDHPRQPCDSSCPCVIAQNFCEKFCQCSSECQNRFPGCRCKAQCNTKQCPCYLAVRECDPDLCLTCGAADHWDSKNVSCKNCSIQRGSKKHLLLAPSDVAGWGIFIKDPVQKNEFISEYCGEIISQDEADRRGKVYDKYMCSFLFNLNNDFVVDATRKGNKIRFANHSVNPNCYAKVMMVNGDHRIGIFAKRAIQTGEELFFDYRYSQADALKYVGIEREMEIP
Sequence of von Hippel-Lindau disease tumor suppressor/Histone-lysine N-methyltransferase EZH2 (P40337 whole entry): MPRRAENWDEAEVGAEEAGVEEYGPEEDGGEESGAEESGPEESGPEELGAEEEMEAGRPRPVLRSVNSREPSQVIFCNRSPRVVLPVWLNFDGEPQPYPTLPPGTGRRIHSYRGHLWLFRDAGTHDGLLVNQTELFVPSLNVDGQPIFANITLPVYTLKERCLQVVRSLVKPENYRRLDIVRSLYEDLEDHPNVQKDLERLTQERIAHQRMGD

[3] = test system: MDA-MB-453; assay: Antiproliferative activity against human MDA-MB-453 cells assessed as inhibition of cell viability incubated for 5 days by CCK8 assay; format: functional, cell-based; details: MDA-MB-453, 120 h
[4] = target: Histone-lysine N-methyltransferase EZH2 (Homo sapiens, UniProt Q15910); assay: Displacement of [3H-SAM] from full-length EZH2 (2 to 746 residues) (unknown origin) using a core histone substrate
Sequence of Histone-lysine N-methyltransferase EZH2 (Q15910 whole entry, the tested form may be a part): as the sequence (Q15910 whole entry) above

[5] = target: Protein arginine N-methyltransferase 5 (Homo sapiens, UniProt O14744); assay: Inhibition of PRMT5 (unknown origin) by HotSpot profiling analysis
Sequence of Protein arginine N-methyltransferase 5 (O14744 whole entry): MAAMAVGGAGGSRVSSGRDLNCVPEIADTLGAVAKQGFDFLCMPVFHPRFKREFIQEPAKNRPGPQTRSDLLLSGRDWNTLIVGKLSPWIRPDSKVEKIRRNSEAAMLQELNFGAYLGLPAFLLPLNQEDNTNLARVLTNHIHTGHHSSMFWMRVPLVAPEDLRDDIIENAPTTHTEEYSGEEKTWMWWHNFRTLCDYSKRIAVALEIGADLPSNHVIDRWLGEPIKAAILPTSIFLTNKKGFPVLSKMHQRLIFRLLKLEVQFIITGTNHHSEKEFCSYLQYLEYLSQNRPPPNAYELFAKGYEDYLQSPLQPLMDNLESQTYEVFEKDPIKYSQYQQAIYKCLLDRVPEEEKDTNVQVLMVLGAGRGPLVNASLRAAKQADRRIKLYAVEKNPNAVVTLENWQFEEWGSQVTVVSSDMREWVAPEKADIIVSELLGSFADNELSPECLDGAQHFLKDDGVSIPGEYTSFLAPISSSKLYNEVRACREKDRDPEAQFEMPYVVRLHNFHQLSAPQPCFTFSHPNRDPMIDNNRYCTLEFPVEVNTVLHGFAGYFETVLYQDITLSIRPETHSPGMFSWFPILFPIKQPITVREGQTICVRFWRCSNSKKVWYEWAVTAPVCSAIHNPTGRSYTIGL

[6] = test system: SU-DHL-6; assay: Antiproliferative activity against human SU-DHL-6 cells; format: functional, cell-based
[7] = test system: SU-DHL-6; assay: Potency index, ratio of EPZ6438 IC50 to test compound IC50 for antiproliferative activity against human SU-DHL-6 cells; format: functional
[8] = target: Histone deacetylase; assay: Inhibition of HDAC in human HeLa cells using Boc-K(Ac)-AMC as substrate; format: cell-based
[9] = test system: MCF7; assay: Antiproliferative activity against human MCF7 cells assessed as inhibition of cell growth incubated for 72 hrs; format: functional, cell-based; details: MCF7, 72 h
[10] = in vitro; details: human, HEK293 cells
[11] = target: T2, Histone-lysine N-methyltransferase EHMT2 (Homo sapiens, UniProt Q96KQ7); assay: Inhibition of G9a in human MDA-MB-231 cells assessed as decrease in H3K9Me2 level by ICW assay; format: cell-based
T2 sequence (Q96KQ7 whole entry): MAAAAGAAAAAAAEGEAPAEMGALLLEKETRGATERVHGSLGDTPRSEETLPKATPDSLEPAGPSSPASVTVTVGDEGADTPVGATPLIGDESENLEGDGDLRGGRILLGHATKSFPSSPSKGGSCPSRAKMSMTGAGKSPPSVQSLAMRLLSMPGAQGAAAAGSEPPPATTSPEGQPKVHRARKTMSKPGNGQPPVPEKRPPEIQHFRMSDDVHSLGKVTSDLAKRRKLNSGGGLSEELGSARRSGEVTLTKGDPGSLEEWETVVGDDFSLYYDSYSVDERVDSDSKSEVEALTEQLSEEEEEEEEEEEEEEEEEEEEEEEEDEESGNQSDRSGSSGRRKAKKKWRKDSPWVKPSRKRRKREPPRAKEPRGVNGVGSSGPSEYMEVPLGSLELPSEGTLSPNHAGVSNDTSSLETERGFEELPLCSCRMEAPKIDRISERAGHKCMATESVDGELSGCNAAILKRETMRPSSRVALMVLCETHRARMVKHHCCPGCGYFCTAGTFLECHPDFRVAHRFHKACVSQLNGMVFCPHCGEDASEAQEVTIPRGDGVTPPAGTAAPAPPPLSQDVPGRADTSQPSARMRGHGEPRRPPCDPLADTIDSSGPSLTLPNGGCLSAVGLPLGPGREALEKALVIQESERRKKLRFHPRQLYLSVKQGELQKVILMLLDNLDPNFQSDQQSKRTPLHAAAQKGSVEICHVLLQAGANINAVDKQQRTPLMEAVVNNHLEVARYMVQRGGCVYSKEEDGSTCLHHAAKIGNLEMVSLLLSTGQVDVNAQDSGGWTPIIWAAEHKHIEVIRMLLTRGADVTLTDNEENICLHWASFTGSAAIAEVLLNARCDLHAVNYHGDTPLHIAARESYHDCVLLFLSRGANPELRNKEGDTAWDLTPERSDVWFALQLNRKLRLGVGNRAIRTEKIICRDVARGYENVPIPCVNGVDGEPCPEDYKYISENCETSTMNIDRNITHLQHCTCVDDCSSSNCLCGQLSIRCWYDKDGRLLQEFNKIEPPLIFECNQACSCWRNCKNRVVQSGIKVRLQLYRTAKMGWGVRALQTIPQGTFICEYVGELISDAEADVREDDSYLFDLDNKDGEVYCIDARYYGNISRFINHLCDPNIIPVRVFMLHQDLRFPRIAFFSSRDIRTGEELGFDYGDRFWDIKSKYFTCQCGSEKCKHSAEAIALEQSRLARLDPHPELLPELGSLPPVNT

[12] = test system: A549; assay: Antiproliferative activity against human A549 cells assessed as inhibition of cell growth incubated for 72 hrs; format: functional, cell-based; details: A549, 72 h
[13] = test system: MDA-MB-231; assay: Antiproliferative activity against human MDA-MB-231 cells assessed as inhibition of cell growth incubated for 72 hrs; format: functional, cell-based; details: MDA-MB-231, 72 h
[14] = target: Histone deacetylase; assay: Inhibition of HDAC in human K562 cells using Boc-K(Ac)-AMC as substrate; format: cell-based
[15] = target: Bromodomain-containing protein 4 (Homo sapiens, UniProt O60885); assay: Induction of BRD4 degradation in human 231MFP cells; format: cell-based

SMILES: N=C(N)NCCC[C@H](N)C(=O)NCC(=O)N[C@@H](CCCN)C(=O)N[C@H](CCCNC(=N)NCCCSC[C@H]1O[C@@H](n2cnc3c(N)ncnc32)[C@H](O)[C@@H]1O)C(N)=O
IC50 [5]: 0.00042 µM

SMILES: COc1cc2nc(NCCNC(=O)CCCCC(=O)NO)nc(NC3CCN(Cc4ccccc4)CC3)c2cc1OC
IC50 [8]: 13.8 µM | IC50 [9]: 10 µM | IC50 at 72 h [10]: 19.9 µM | IC50 [11]: 7.14 µM | IC50 [12]: 10 µM | IC50 [13]: 10 µM | IC50 [14]: 5.73 µM

SMILES: CCN(c1cc(-c2ccc(CN3CCOCC3)cc2)cc(C(=O)NCc2c(C)cc(C)[nH]c2=O)c1C)C1CCOCC1 [TAZEMETOSTAT]
IC50 [6]: 21.9 µM

Further lines, with some results ahead:

IC50 [1]: 0.0086 µM | DC50 [2]: 0.14 µM | IC50 [3]: 2.3 µM | IC50 [4]: 0.062 µM
SMILES: CCN(c1cc(-c2ccc(CN3CCN(C(=O)CCCCCCCC(=O)N[C@H](C(=O)N4C[C@H](O)C[C@H]4C(=O)NCc4ccc(-c5scnc5C)cc4)C(C)(C)C)CC3)cc2)cc(C(=O)NCc2c(C)cc(C)[nH]c2=O)c1C)C1CCOCC1

IC50 [6]: 3.75 µM
SMILES: CCN(c1cc(-c2ccc(CN3CCN(C(=O)c4cnn(CCOCCOCCOCCNC(=O)CN5CCN(C(=O)N6C(c7ccc(OC)cc7OC(C)C)=N[C@H](c7ccc(Cl)cc7)[C@@H]6c6ccc(Cl)cc6)CC5=O)n4)CC3)cc2)cc(C(=O)NCc2c(C)cc(C)[nH]c2=O)c1C)C1CCOCC1
Ratio IC50 [7]: 6

DC50 [15]: 14 µM
SMILES: Cc1sc2c(c1C)C(c1ccc(Cl)cc1)=N[C@H](CC(=O)NCCCCOc1ccc(C3CC(c4ccc(Br)cc4)=NN3C(=O)CCl)cc1)c1nnc(C)n1-2 (stereo partly specified)
